From PubChem BioAssay AID2060509 (Molecular Pharmacology Branch, DTP, NCI, 2025)
pIC50: −log10 of the molar value.

System: 485176-168-R4-J1-PDC spheroids with HUVEC/MSC, viability
Assay: Anticancer human tumor 485176-168-R4-J1-PDC patient-derived pancreatic adenocarcinoma cell line growth inhibition [GQUAD]
Conditions: for pIC50: curve of first compound; for viability, T/C: stronger effect = lower value; active = viability on the fitted dose curve at most 10% of control; inactive = the rest
In short: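 Viability of tumor cells grown as complex spheroids with endothelial and stromal cells, exposed to drug combinations. Top concentration at or near clinical Cmax (else 10 microM), diluted in half-log increments.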

[1] = second compound 0.0316 µM, first compound 0.0316 µM
[2] = second compound 0.0316 µM, first compound 0.316 µM
[3] = second compound 0.1 µM, first compound 0.0316 µM
[4] = second compound 0.1 µM, first compound 0.316 µM
[5] = second compound 0.316 µM, first compound 0.0316 µM
[6] = second compound 0.316 µM, first compound 0.316 µM
[7] = second compound 1 µM, first compound 0.0316 µM
[8] = second compound 1 µM, first compound 0.316 µM
[9] = second compound 3.16 µM, first compound 0.0316 µM
[10] = second compound 3.16 µM, first compound 0.316 µM
[11] = second compound 10 µM, first compound 0.0316 µM
[12] = second compound 10 µM, first compound 0.316 µM
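Also: spheroids exposed to compounds for seven days before readout.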
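For viability, T/C in this document: percent viability relative to DMSO vehicle control wells as 100%.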

C=CCn1c(=O)c2cnc(Nc3ccc(N4CCN(C)CC4)cc3)nc2n1-c1cccc(C(C)(C)O)n1 + Cc1[nH]c2ccc(F)cc2c1-c1nc2c3cccnc3c3ncccc3c2[nH]1
6.33: pIC50 (second compound 0.316 µM) | pIC50 (second compound 1 µM)
6.44: pIC50 (second compound 3.16 µM)
6.40: pIC50 (second compound 0.0316 µM)
active: viability, T/C (second compound 0.0316 µM, first compound 3.16 µM) 7.84% | viability, T/C (second compound 0.0316 µM, first compound 10 µM) 3.33% | viability, T/C (second compound 0.1 µM, first compound 3.16 µM) 7.9% | viability, T/C (second compound 0.1 µM, first compound 10 µM) 4.23% | viability, T/C (second compound 0.316 µM, first compound 3.16 µM) 6.26% | viability, T/C (second compound 0.316 µM, first compound 10 µM) 4.73% | viability, T/C (second compound 1 µM, first compound 3.16 µM) 7.76% | viability, T/C (second compound 1 µM, first compound 10 µM) 4.28% | viability, T/C (second compound 3.16 µM, first compound 10 µM) 4.03% | viability, T/C (second compound 10 µM, first compound 3.16 µM) 5.54% | viability, T/C (second compound 10 µM, first compound 10 µM) 3.76%
6.51: pIC50 (second compound 10 µM)
inactive: viability, T/C [1] 103% | viability, T/C (second compound 0.0316 µM, first compound 0.1 µM) 96.9% | viability, T/C [2] 55.1% | viability, T/C (second compound 0.0316 µM, first compound 1 µM) 22.6% | viability, T/C [3] 105% | viability, T/C (second compound 0.1 µM, first compound 0.1 µM) 82.8% | viability, T/C [4] 60.2% | viability, T/C (second compound 0.1 µM, first compound 1 µM) 20% | viability, T/C [5] 98.2% | viability, T/C (second compound 0.316 µM, first compound 0.1 µM) 81.1% | viability, T/C [6] 65.8% | viability, T/C (second compound 0.316 µM, first compound 1 µM) 25% | viability, T/C [7] 115% | viability, T/C (second compound 1 µM, first compound 0.1 µM) 94.4% | viability, T/C [8] 66.7% | viability, T/C (second compound 1 µM, first compound 1 µM) 22% | viability, T/C [9] 114% | viability, T/C (second compound 3.16 µM, first compound 0.1 µM) 75.1% | viability, T/C [10] 63.7% | viability, T/C (second compound 3.16 µM, first compound 1 µM) 23.2% | viability, T/C (second compound 3.16 µM, first compound 3.16 µM) 6.68% | viability, T/C [11] 101% | viability, T/C (second compound 10 µM, first compound 0.1 µM) 82.4% | viability, T/C [12] 50.1% | viability, T/C (second compound 10 µM, first compound 1 µM) 18.9%
6.41: pIC50 (second compound 0.1 µM)

Cc1[nH]c2ccccc2c1CCNCc1ccc(/C=C/C(=O)NO)cc1 + CN(C)c1ccc(Nc2c3ccc(NC(=O)CCN4CCCC4)cc3nc3cc(NC(=O)CCN4CCCC4)ccc23)cc1
6.88: pIC50 (second compound 0.1 µM)
6.92: pIC50 (second compound 10 µM)
6.90: pIC50 (second compound 0.316 µM)
inactive: viability, T/C (second compound 0.0316 µM, first compound 0.000999 µM) 102% | viability, T/C (second compound 0.0316 µM, first compound 0.00316 µM) 89.9% | viability, T/C (second compound 0.0316 µM, first compound 0.00999 µM) 82.7% | viability, T/C [1] 69.4% | viability, T/C (second compound 0.0316 µM, first compound 0.0999 µM) 64.6% | viability, T/C [2] 12.9% | viability, T/C (second compound 0.1 µM, first compound 0.000999 µM) 103% | viability, T/C (second compound 0.1 µM, first compound 0.00316 µM) 87.5% | viability, T/C (second compound 0.1 µM, first compound 0.00999 µM) 89.2% | viability, T/C [3] 86.1% | viability, T/C (second compound 0.1 µM, first compound 0.0999 µM) 61.9% | viability, T/C [4] 12.1% | viability, T/C (second compound 0.316 µM, first compound 0.000999 µM) 80.1% | viability, T/C (second compound 0.316 µM, first compound 0.00316 µM) 96.7% | viability, T/C (second compound 0.316 µM, first compound 0.00999 µM) 82.9% | viability, T/C [5] 82% | viability, T/C (second compound 0.316 µM, first compound 0.0999 µM) 59.4% | viability, T/C [6] 11.8% | viability, T/C (second compound 1 µM, first compound 0.000999 µM) 97.3% | viability, T/C (second compound 1 µM, first compound 0.00316 µM) 96.7% | viability, T/C (second compound 1 µM, first compound 0.00999 µM) 83% | viability, T/C [7] 64.2% | viability, T/C (second compound 1 µM, first compound 0.0999 µM) 76.5% | viability, T/C [8] 10% | viability, T/C (second compound 3.16 µM, first compound 0.000999 µM) 113% | viability, T/C (second compound 3.16 µM, first compound 0.00316 µM) 97.9% | viability, T/C (second compound 3.16 µM, first compound 0.00999 µM) 86% | viability, T/C [9] 74.5% | viability, T/C (second compound 3.16 µM, first compound 0.0999 µM) 47.9% | viability, T/C [10] 14.5% | viability, T/C (second compound 10 µM, first compound 0.000999 µM) 104% | viability, T/C (second compound 10 µM, first compound 0.00316 µM) 83.5% | viability, T/C (second compound 10 µM, first compound 0.00999 µM) 69.3% | viability, T/C [11] 90.7% | viability, T/C (second compound 10 µM, first compound 0.0999 µM) 58.3%
6.87: pIC50 (second compound 1 µM)
6.94: pIC50 (second compound 0.0316 µM)
7.05: pIC50 (second compound 3.16 µM)
active: viability, T/C [12] 5.87%
